Read-outs that look alike come from different tables or passages of the source. Positions of bridges follow the written chain, without caps; N, C: chain ends. Non-standard residues stand in square brackets, D forms with d. Residues, ends and D or L forms follow the SMILES beside them. Sec = N[C@@H](C[SeH])C(=O)O; Nle = CCCC[C@H](N)C(=O)O
How the values were obtained:
[1] = target: T1, Natriuretic Peptide Receptor-A (NPR-A) signaling in MDCK cells (Canis lupus familiaris, UniProt A0A8I3MHU3); type: cell-based, canine; conditions: for EC50: read-out: EC50 (M) ± Standard Error
T1 sequence (A0A8I3MHU3 32-1060): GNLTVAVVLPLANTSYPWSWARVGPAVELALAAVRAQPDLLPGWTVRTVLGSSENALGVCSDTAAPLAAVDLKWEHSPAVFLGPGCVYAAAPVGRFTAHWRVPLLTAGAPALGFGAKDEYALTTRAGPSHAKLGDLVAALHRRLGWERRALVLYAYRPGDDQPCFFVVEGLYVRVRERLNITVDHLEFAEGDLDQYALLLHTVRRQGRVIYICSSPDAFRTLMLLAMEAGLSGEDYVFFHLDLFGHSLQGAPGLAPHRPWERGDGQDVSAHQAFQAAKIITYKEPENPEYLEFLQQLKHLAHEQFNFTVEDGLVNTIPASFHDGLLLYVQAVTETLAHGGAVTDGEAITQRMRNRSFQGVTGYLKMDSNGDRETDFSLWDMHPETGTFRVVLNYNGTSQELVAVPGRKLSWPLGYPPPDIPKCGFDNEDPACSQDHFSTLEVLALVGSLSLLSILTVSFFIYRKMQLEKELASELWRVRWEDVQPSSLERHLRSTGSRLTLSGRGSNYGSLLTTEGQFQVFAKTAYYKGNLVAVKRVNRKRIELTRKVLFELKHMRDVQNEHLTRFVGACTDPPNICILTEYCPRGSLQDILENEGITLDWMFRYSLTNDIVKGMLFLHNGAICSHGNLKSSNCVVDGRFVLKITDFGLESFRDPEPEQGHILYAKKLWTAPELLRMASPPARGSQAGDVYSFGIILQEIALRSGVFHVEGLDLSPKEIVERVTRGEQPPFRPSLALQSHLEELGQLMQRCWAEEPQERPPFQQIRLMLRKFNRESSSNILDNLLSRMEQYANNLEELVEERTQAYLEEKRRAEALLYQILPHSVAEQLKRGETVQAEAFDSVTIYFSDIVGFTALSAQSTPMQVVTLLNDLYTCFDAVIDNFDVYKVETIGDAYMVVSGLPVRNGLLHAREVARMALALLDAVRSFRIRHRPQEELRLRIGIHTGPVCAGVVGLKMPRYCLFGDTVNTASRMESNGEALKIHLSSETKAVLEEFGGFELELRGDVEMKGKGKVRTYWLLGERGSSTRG

[2] = system: conscious rabbits; experiment: Blood pressure and heart rate in conscious rabbits, intravenous infusion dose-response (Example 8)
[3] = stimulation of cGMP accumulation in MDCK cells
[4] = after 1 hour recovery period, Table 10A

In the case of `CC[C@H](C)[C@@H]1NC(=O)[C@H](CCCNC(=N)N)NC(=O)[C@H](CC(=O)O)NC(=O)[C@H](CC(C)C)NC(=O)[C@@H]2CCCN2C(=O)[C@H](Cc2ccccc2)NC(=O)CNC(=O)[C@H](Cc2ccccc2)NC(=O)[C@@H](NC(=O)CNC(=O)[C@H](C)NC(=O)[C@H](CO)NC(=O)[C@@H](NC(=O)[C@H](CCCCN)NC(=O)[C@H](CO)NC(=O)[C@H](CC(=O)O)NC(=O)[C@@H](N)CO)[C@@H](C)CC)CSSC[C@@H](C(=O)N[C@@H](CC(N)=O)C(=O)N[C@@H](CCCNC(=N)N)C(=O)N[C@H](C(=O)N[C@@H](CCSC)C(=O)N[C@@H](CCC(N)=O)C(=O)N[C@@H](CC(N)=O)C(=O)N2CCC[C@H]2C(=O)N2CCC[C@H]2C(=O)N[C@@H](CCCCN)C(=O)N[C@@H](CCCCN)C(=O)N[C@@H](Cc2ccccc2)C(=O)N[C@@H](CO)C(=O)NCC(=O)N[C@@H](CCC(=O)O)C(=O)O)[C@@H](C)CC)NC(=O)CNC(=O)[C@H](CC(C)C)NC(=O)CNC(=O)[C@H](CO)NC(=O)[C@H](C(C)C)NC(=O)[C@H](CO)NC(=O)CNC1=O` [Peptide A7S6-TNPc] (H-SDSKISAGCFGFPLDRIGSVSGLGCNRIMQNPPKKFSGE-OH; disulfide 9-25; N-terminus assumed), the “−Log10 EC50 (pEC50) ± Standard Error” value [1, 3] was 6.897 ± 0.2652 and the EC50 [1, 3] was 1.69e-07 M.

With `CC[C@H](C)[C@@H]1NC(=O)[C@H](CCCNC(=N)N)NC(=O)[C@H](CC(=O)O)NC(=O)[C@H]([C@@H](C)CC)NC(=O)[C@H](CCCCN)NC(=O)[C@H](Cc2c[nH]cn2)NC(=O)CNC(=O)[C@H](Cc2ccccc2)NC(=O)[C@@H](NC(=O)CNC(=O)[C@H](CC(=O)O)NC(=O)[C@@H]2CCCN2C(=O)[C@H](C)NC(=O)[C@H](CCCCN)NC(=O)[C@H](CCCCN)NC(=O)[C@H](CCCCN)NC(=O)[C@@H]2CCCN2C(=O)[C@@H]2CCCN2C(=O)[C@H](CCC(=O)O)NC(=O)[C@H](CC(N)=O)NC(=O)[C@H](CCC(=O)O)NC(=O)CN)CSSC[C@@H](C(=O)N[C@@H](CC(N)=O)C(=O)N[C@@H](CCCCN)C(=O)N[C@@H](Cc2ccccc2)C(=O)N[C@@H](CCCCN)C(=O)N2CCC[C@H]2C(=O)NCC(=O)N[C@@H](Cc2c[nH]cn2)C(=O)O)NC(=O)CNC(=O)[C@H](CC(C)C)NC(=O)CNC(=O)[C@H](CO)NC(=O)[C@H](Cc2c[nH]cn2)NC(=O)[C@H](CO)NC(=O)CNC1=O` [PNP, reference compound] (H-GENEPPKKKAPDGCFGHKIDRIGSHSGLGCNKFKPGH-OH; disulfide 14-30) the “−Log10 EC50 (pEC50) ± Standard Error” value [1, 3] was 6.660 ± 0.4500 and the EC50 [1, 3] was 3.47e-07 M.

In the case of `CCCC[C@H](NC(=O)[C@@H](NC(=O)[C@H](CCCNC(=N)N)NC(=O)[C@H](CC(N)=O)NC(=O)[C@@H]1CSSC[C@H](NC(=O)CNC(=O)[C@H](CC(N)=O)NC(=O)CNC(=O)[C@@H](NC(=O)[C@H](CCCCN)NC(=O)[C@H](CO)NC(=O)[C@H](CC(=O)O)NC(=O)[C@@H](N)CO)[C@@H](C)CC)C(=O)N[C@@H](Cc2ccccc2)C(=O)NCC(=O)N[C@@H](Cc2ccccc2)C(=O)N2CCC[C@H]2C(=O)N[C@@H](CC(C)C)C(=O)N[C@@H](CC(=O)O)C(=O)N[C@@H](CCCNC(=N)N)C(=O)N[C@@H]([C@@H](C)CC)C(=O)NCC(=O)N[C@@H](CO)C(=O)N[C@@H](C(C)C)C(=O)N[C@@H](CO)C(=O)NCC(=O)N[C@@H](CC(C)C)C(=O)NCC(=O)N1)[C@@H](C)CC)C(=O)N[C@@H](CCC(N)=O)C(=O)N[C@@H](CC(N)=O)C(=O)N1CCC[C@H]1C(=O)N1CCC[C@H]1C(=O)N[C@@H](CCCCN)C(=O)N[C@@H](CCCCN)C(=O)N[C@@H](Cc1ccccc1)C(=O)N[C@@H](CO)C(=O)NCC(=O)N[C@@H](CCC(=O)O)C(=O)O` [Nle-TNPc] (H-SDSKIGNGCFGFPLDRIGSVSGLGCNRI[Nle]QNPPKKFSGE-OH; disulfide 9-25; N-terminus assumed), the “−Log10 EC50 (pEC50) ± Standard Error” value [1, 3] was 6.497 ± 0.2017 and the EC50 [1, 3] was 3.99e-07 M.

In the case of `CC[C@H](C)[C@@H]1NC(=O)[C@H](CCCNC(=N)N)NC(=O)[C@H](CC(=O)O)NC(=O)[C@H](CC(C)C)NC(=O)[C@@H]2CCCN2C(=O)[C@H](Cc2ccccc2)NC(=O)CNC(=O)[C@H](Cc2ccccc2)NC(=O)[C@@H](NC(=O)CNC(=O)[C@H](CCCCN)NC(=O)[C@H](CO)NC(=O)[C@@H](NC(=O)[C@H](CCCCN)NC(=O)[C@H](CO)NC(=O)[C@H](CC(=O)O)NC(=O)[C@@H](N)CO)[C@@H](C)CC)CSSC[C@@H](C(=O)N[C@@H](CC(N)=O)C(=O)N[C@@H](CCCNC(=N)N)C(=O)N[C@H](C(=O)N[C@@H](CCSC)C(=O)N[C@@H](CCC(N)=O)C(=O)N[C@@H](CC(N)=O)C(=O)N2CCC[C@H]2C(=O)N2CCC[C@H]2C(=O)N[C@@H](CCCCN)C(=O)N[C@@H](CCCCN)C(=O)N[C@@H](Cc2ccccc2)C(=O)N[C@@H](CO)C(=O)NCC(=O)N[C@@H](CCC(=O)O)C(=O)O)[C@@H](C)CC)NC(=O)CNC(=O)[C@H](CC(C)C)NC(=O)CNC(=O)[C@H](CO)NC(=O)[C@H](C(C)C)NC(=O)[C@H](CO)NC(=O)CNC1=O` [Peptide K7S6-TNPc] (H-SDSKISKGCFGFPLDRIGSVSGLGCNRIMQNPPKKFSGE-OH; disulfide 9-25; N-terminus assumed), the “−Log10 EC50 (pEC50) ± Standard Error” value [1, 3] was 7.567 ± 0.4397 and the EC50 [1, 3] was 5.24e-08 M.

`CC[C@H](C)[C@H](NC(=O)[C@H](CCCCN)NC(=O)[C@H](CO)NC(=O)[C@H](CC(=O)O)NC(=O)[C@@H](N)CO)C(=O)NCC(=O)N[C@@H](CC(N)=O)C(=O)NCC(=O)N[C@H]1C[Se][Se]C[C@@H](C(=O)N[C@@H](CC(N)=O)C(=O)N[C@@H](CCCNC(=N)N)C(=O)N[C@H](C(=O)N[C@@H](CCSC)C(=O)N[C@@H](CCC(N)=O)C(=O)N[C@@H](CC(N)=O)C(=O)N2CCC[C@H]2C(=O)N2CCC[C@H]2C(=O)N[C@@H](CCCCN)C(=O)N[C@@H](CCCCN)C(=O)N[C@@H](Cc2ccccc2)C(=O)N[C@@H](CO)C(=O)NCC(=O)N[C@@H](CCC(=O)O)C(=O)O)[C@@H](C)CC)NC(=O)CNC(=O)[C@H](CC(C)C)NC(=O)CNC(=O)[C@H](CO)NC(=O)[C@H](C(C)C)NC(=O)[C@H](CO)NC(=O)CNC(=O)[C@H]([C@@H](C)CC)NC(=O)[C@H](CCCNC(=N)N)NC(=O)[C@H](CC(=O)O)NC(=O)[C@H](CC(C)C)NC(=O)[C@@H]2CCCN2C(=O)[C@H](Cc2ccccc2)NC(=O)CNC(=O)[C@H](Cc2ccccc2)NC1=O` [Sec2-TNPc] (H-SDSKIGNG[Sec]FGFPLDRIGSVSGLG[Sec]NRIMQNPPKKFSGE-OH; diselenide 9-25) was tested, and the “−Log10 EC50 (pEC50) ± Standard Error” value [1] was 7.463 ± 0.4096 and the EC50 [1] was 6.39e-08 M.

For `CC[C@H](C)[C@H](NC(=O)[C@H](CCCCN)NC(=O)[C@H](CO)NC(=O)[C@H](CC(=O)O)NC(=O)[C@@H](N)CO)C(=O)NCC(=O)N[C@@H](CC(=O)O)C(=O)NCC(=O)N[C@H]1CSSC[C@@H](C(=O)N[C@@H](CC(N)=O)C(=O)N[C@@H](CCCNC(=N)N)C(=O)N[C@H](C(=O)N[C@@H](CCSC)C(=O)N[C@@H](CCC(N)=O)C(=O)N[C@@H](CC(N)=O)C(=O)N2CCC[C@H]2C(=O)N2CCC[C@H]2C(=O)N[C@@H](CCCCN)C(=O)N[C@@H](CCCCN)C(=O)N[C@@H](Cc2ccccc2)C(=O)N[C@@H](CO)C(=O)NCC(=O)N[C@@H](CCC(=O)O)C(=O)O)[C@@H](C)CC)NC(=O)CNC(=O)[C@H](CC(C)C)NC(=O)CNC(=O)[C@H](CO)NC(=O)[C@H](C(C)C)NC(=O)[C@H](CO)NC(=O)CNC(=O)[C@H]([C@@H](C)CC)NC(=O)[C@H](CCCNC(=N)N)NC(=O)[C@H](CC(=O)O)NC(=O)[C@H](CC(C)C)NC(=O)[C@@H]2CCCN2C(=O)[C@H](Cc2ccccc2)NC(=O)CNC(=O)[C@H](Cc2ccccc2)NC1=O` [Peptide N7D-TNPc] (H-SDSKIGDGCFGFPLDRIGSVSGLGCNRIMQNPPKKFSGE-OH; disulfide 9-25; N-terminus assumed), the “−Log10 EC50 (pEC50) ± Standard Error” value [1, 3] was 7.585 ± 0.005 and the EC50 [1, 3] was 2.62e-08 M.

In the case of “SDSKIGNGCFGFPLDHIGSVSGLGCNRIMQNPPKKFSGE (A portion of a natriuretic peptide) [TNPc R16H]”, the “Recovery (MAP)” value [2, 4] was 67.6 mm Hg, the “Recovery Delta SED (MAP)” value [2, 4] was 2.0 ± 3.9 mm Hg and the “reduction of MAP compared to vehicle, in words” value ([2]; highest dose) was “did significantly reduce MAP”. For the same compound, the “MAP at final dose” value ([2]; highest dose, Table 10A) was 65.6 mm Hg and the “Treatment Effect, change of mean blood pressure during the infusion” value ([2]; highest dose, Table 10A, groups 1, 2A and 3) was −7.3 mm Hg.

Reference: US8058242B2, “Chimeric proteins with natriuretic activity” (The University of Queensland, priority 2004, dated 2011)
